This note sets out measurements from ChEMBL document CHEMBL1156230, “Identification of phenylsulfone-substituted quinoxaline (WYE-672) as a tissue selective liver X-receptor (LXR) agonist” (J Med Chem, 2010).

Active and inactive are the calls of the source. The rule behind the calls is not given here.

One data set relates to THP-1. In words: Induction of [3H]cholesterol efflux in human THP1 cells assessed as lipid accumulation. In kind it is functional, cell-based.
Data set [1] has as its target T1, Oxysterols receptor LXR-alpha (Homo sapiens, UniProt Q13133).
Data set [2] deals with T2, Bile acid receptor (Homo sapiens) (UniProt Q96RI1).
T2 sequence (whole entry): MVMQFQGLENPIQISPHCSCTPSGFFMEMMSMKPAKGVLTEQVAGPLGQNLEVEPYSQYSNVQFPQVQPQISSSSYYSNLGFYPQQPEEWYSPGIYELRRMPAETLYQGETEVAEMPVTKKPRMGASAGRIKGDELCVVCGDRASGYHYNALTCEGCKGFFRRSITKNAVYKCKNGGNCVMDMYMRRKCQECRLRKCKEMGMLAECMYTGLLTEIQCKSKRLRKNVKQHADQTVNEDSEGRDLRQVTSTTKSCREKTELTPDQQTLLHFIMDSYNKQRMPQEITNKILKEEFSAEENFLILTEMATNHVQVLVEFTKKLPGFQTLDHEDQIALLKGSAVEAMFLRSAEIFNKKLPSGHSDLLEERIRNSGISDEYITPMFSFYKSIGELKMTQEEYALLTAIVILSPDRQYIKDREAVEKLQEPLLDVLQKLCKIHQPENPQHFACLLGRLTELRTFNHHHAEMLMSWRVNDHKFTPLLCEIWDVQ
In words: Binding affinity to FXR.

The next data set has as its system Mus musculus. Put plainly: Antiatherosclerotic activity against high fat/high cholesterol fed LDLR-deficient mouse assessed as reduction in aortic arch lesion burden at 0.6 mg/kg/day administered with diet relative to control. The data set is classed as functional, Pharyngeal arch artery. Further details: scale not given: the % may be the effect or the level left.

Data set [3] deals with T3, Nuclear receptor subfamily 1 group I member 2 (Homo sapiens, UniProt O75469).
T3 sequence (O75469 whole entry): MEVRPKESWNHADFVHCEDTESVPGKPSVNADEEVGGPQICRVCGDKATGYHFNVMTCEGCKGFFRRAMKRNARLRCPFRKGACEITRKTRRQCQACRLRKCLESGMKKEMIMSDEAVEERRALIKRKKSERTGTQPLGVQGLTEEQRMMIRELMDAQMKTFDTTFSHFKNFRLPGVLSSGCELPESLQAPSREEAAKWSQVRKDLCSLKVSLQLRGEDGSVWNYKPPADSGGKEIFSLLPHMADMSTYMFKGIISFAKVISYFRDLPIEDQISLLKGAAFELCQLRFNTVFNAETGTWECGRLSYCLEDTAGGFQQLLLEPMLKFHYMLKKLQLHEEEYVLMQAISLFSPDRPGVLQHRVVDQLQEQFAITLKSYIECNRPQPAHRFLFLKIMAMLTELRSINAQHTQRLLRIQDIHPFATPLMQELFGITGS
Put plainly: Binding affinity to PXR.

Data set [4] has as its target T4, Peroxisome proliferator-activated receptor gamma (Homo sapiens) (UniProt P37231).
T4 sequence (whole entry): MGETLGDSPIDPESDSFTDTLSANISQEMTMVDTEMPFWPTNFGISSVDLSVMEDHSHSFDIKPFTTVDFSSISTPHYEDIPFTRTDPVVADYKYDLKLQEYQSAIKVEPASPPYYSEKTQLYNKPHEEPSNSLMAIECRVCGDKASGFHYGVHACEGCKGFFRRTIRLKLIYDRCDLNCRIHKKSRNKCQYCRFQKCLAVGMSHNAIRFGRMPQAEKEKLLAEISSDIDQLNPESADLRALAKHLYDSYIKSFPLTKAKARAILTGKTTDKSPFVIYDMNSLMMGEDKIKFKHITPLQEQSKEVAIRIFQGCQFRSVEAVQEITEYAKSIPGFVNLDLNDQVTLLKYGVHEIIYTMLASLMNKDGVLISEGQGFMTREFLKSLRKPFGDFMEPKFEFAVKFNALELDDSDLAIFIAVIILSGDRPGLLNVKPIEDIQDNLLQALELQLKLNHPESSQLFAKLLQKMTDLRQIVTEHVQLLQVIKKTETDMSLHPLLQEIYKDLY
In words: Binding affinity to PPARgamma.

Data set [5] addresses T5, Estrogen receptor (Homo sapiens) (UniProt P03372).
T5 sequence (whole entry): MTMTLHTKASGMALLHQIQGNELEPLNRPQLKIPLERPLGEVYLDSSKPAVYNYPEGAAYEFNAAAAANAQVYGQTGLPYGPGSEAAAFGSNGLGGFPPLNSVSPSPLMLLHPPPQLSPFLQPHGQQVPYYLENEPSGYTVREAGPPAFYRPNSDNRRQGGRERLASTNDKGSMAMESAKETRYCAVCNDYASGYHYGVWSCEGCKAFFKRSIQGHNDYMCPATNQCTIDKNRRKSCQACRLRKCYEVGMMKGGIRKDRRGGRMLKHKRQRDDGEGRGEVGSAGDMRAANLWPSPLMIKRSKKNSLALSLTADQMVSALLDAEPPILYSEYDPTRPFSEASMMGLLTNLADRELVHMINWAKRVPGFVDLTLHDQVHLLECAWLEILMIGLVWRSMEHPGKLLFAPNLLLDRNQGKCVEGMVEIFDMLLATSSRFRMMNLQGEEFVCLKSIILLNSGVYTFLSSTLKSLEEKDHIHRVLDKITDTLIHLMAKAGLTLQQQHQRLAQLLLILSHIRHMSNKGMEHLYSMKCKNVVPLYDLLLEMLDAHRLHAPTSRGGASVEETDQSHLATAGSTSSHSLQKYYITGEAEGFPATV
Put plainly: Binding affinity to estrogen receptor.

The target in data set [6] is T6, Peroxisome proliferator-activated receptor delta (Homo sapiens) (UniProt Q03181).
T6 sequence (whole entry): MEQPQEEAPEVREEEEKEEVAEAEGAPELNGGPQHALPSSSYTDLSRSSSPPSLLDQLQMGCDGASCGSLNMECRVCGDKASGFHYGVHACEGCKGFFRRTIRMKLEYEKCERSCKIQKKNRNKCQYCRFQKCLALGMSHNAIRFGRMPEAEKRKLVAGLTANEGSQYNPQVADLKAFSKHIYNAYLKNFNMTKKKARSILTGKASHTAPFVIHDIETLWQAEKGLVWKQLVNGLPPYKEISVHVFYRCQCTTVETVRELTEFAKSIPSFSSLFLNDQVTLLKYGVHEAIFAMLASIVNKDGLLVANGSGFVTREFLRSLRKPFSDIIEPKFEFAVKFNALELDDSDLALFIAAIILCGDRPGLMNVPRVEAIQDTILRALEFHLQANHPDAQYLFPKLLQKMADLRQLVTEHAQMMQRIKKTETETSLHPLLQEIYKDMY
Put plainly: Binding affinity to PPARdelta.

Data set [7] in a line: AUC (0 to infinity) in C57 mouse at 10 mg/kg, po. The following applies: plasma. The data set is classed as ADME, organism-based. More on the design: time infinity, dose 10 mg/kg, route oral.
Data set [8] has as its target Oxysterols receptor LXR-beta (Homo sapiens, UniProt P55055).
Data set [9] addresses T1, Oxysterols receptor LXR-alpha. This is another data set of the same source.

In general, EC50 refers to the concentration needed to bring the measured effect to its halfway point. The term AUC(0-inf) denotes the area under the concentration-time curve extrapolated to infinity.

T1 sequence (Q13133 whole entry, looked up): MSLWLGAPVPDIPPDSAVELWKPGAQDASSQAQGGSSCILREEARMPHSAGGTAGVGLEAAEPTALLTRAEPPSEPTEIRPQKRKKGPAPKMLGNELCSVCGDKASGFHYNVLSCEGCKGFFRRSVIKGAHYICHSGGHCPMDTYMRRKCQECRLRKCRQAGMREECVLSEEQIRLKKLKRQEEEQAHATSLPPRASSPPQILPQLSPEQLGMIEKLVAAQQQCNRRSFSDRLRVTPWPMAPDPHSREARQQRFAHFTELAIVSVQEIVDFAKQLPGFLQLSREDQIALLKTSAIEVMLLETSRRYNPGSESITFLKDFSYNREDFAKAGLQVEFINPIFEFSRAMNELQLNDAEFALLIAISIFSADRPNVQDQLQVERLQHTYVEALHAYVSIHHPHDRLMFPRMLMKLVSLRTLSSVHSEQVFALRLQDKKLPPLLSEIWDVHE
Chain of Oxysterols receptor LXR-beta (P55055 whole entry): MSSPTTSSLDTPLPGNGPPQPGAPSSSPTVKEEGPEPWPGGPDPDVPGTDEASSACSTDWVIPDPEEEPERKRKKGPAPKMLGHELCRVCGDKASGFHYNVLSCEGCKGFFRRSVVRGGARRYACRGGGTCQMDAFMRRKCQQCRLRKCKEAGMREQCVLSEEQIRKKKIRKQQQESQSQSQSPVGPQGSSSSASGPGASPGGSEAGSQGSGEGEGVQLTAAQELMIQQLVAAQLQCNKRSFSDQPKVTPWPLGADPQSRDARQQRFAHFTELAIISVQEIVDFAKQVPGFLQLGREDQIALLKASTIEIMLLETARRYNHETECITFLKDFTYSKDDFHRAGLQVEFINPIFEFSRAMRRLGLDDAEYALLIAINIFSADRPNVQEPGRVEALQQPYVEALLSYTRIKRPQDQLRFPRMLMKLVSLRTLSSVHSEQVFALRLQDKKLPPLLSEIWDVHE

As to `Cc1nc2c(C(F)(F)F)cccc2nc1-c1ccc(-c2cccc(S(C)(=O)=O)c2)cc1`, the EC50 in the data set on THP-1 was 72 nM; in data set [1], 1700 nM; in data set [8], above 1000 nM; in data set [9] it was above 1000 nM. The result in data set [2], in [4], in data set [5] and in data set [6] was inactive. In addition, the Activity in the data set with Mus musculus was 20%; in [3] it was “Not Active”. Besides, the AUC(0-inf) in [7] worked out at 2440 ng·h/mL.
